Test results from patent publication US7803842B2, “Choline esters useful for the treatment of cognitive dysfunctions and enhancement of memory, learning and cognition” (priority 2004, dated 2010).
Entries after “also recorded” stand apart in the source; their conditions may differ. Where a name gives a salt, the structure may show the parent alone.

What was measured:
[1] = test system: scopolamine impaired rats; assay: Water maze hidden platform task in scopolamine impaired rats; assay type: in vivo, Long Evans rats; details: for Hidden platform task performance (latency, swim path length) vs saline controls; reversal of scopolamine effect: donepezil 0.75 mg/kg p.o. daily with scopolamine 0.1 mg/kg i.p., test days 3 and 4, hydrochloride
Experimental: (§1) Male Long-Evans rats (3 months of age) were administered either saline, donepezil (0.75 mg/kg), or PP-100 (3.0 mg/kg or 40.0 mg/kg) by oral gavage for 10 days prior to (and during the 5 days of) testing in a water maze task. The compounds were evaluated for their ability to reverse the amnestic effects of scopolamine (0.1 mg/kg) in this task.
The animals were randomly assigned to one of 5 groups (n=10/group) and administered one daily dose of either of two doses of the choline derivative PP-100 (3 or 40 mg/kg), donepezil HCL (0.75 mg/kg), or vehicle (0.9% saline), via oral gavage (p.o.) beginning ten days prior to initiation of the water maze task. Daily dosing continued through the initial day of visible platform testing and the subsequent five days of water maze testing (i.e., on hidden platform test days as well as probe trial days). On both the single day of pre-testing (Visible Platform Test) as well as on each day of watermaze testing, thirty minutes prior to the first trial, 0.1 mg/kg of scopolamine hydrobromide was administered i.p. to four of the five groups (i.e., excluding the saline-saline group). Fifteen minutes after the scopolamine injection (or vehicle) each group was dosed with one of the test articles or vehicle (see Table 1 for an overview of the testing protocol). Test articles were prepared according to the supplied instructions, and aliquots of the solutions were stored (at −20° C.). Test agents were freshly thawed at the time of use.
In order to test and compare the effects of PP-100 on both acquisition and recall of spatial memories, the water maze hidden platform task was utilized. […] Scopolamine is known to impair performance in the water maze task, and blockage of scopolamine effects is known to reduce impairment in the water maze (e.g., Terry et al., Drug Dev. Res., 47:97 (1999).
The water maze experiment was performed in a circular pool (diameter=180 cm, height=76 cm) made of black plastic. The pool was filled with water to a depth of 35 cm and the water was maintained at 25.0±1.0° C. The pool was located in a large room with a number of extra-maze visual cues including geometric images (squares, triangles, circles etc.) hung on the wall, diffuse lighting, and black curtains used to hide the experimenter (visually) and the resting test subjects. Swimming activity of each rat was monitored via a television camera mounted overhead, which relayed information including latency to find the platform, total distance traveled, time and distance spent in each quadrant etc. to a video tracking system (Actimetrics, Evanston, Ill.).
For the water maze test itself, the escape platform was submerged. […]

[2] = test system: scopolamine impaired rats; assay: Water maze visible platform task (pre-test) in scopolamine impaired rats; assay type: in vivo, Long Evans rats; details: scopolamine 0.1 mg/kg i.p.; hydrobromide
Experimental: as §1
The animals were randomly assigned to one of 5 groups (n=10/group) and administered one daily dose of either of two doses of the choline derivative PP-100 (3 or 40 mg/kg), donepezil HCL (0.75 mg/kg), or vehicle (0.9% saline), via oral gavage (p.o.) beginning ten days prior to initiation of the water maze task. Daily dosing continued through the initial day of visible platform testing and the subsequent five days of water maze testing (i.e., on hidden platform test days as well as probe trial days). […]
The water maze experiment was performed in a circular pool (diameter=180 cm, height=76 cm) made of black plastic. […] Swimming activity of each rat was monitored via a television camera mounted overhead, which relayed information including latency to find the platform, total distance traveled, time and distance spent in each quadrant etc. to a video tracking system (Actimetrics, Evanston, Ill.). […]

Row | Structure (SMILES) | Hidden platform task performance (latency, swim path length) vs saline controls; reversal of scopolamine effect [1] | Hidden platform task performance (latency, swim path length) vs saline controls; reversal of scopolamine effect ([1]; listed as Donepezil) | Hidden platform task performance vs saline controls ([1]; with scopolamine 0.1 mg/kg i.p., donepezil 0.75 mg/kg or PP-100 3 or 40 mg/kg p.o., test days 1 and 2) | Effect on ability to locate a highly visible platform [2] | Effect on learning in the hidden platform task (latency, swim distance) ([1]; scopolamine 0.1 mg/kg i.p. 30 minutes before first trial)
1 | COc1cc2c(cc1OC)C(=O)C(CC1CCN(Cc3ccccc3)CC1)C2 (racemic) [donepezil, (±)-2-[(1-benzyl-4-piperidyl)methyl]-5,6-dimethoxy-1-indanone hydrochloride] | did not differ (statistically) from saline controls | appeared to at least partially reverse the effects of scopolamine | generally performed less efficiently than saline controls | – | –
2 | CN1[C@@H]2C[C@@H](OC(=O)[C@H](CO)c3ccccc3)C[C@H]1[C@@H]1O[C@@H]12 [scopolamine, scopolamine hydrobromide] | – | – | – | tended to produce impairment; also recorded: led to some impairment | impaired learning
